Read-outs that look alike come from different tables or passages of the source. Where no end group is shown, it is not given here.
Legend:
[1] = biological target: T1, Heparanase (Homo sapiens, UniProt Q9Y251, K307R); assay: Dimerization assay (H53 hetero-dimer formation, di-methyl-methylene-blue); type: biochemical
T1 sequence (Q9Y251 158-543 K307R limits assumed): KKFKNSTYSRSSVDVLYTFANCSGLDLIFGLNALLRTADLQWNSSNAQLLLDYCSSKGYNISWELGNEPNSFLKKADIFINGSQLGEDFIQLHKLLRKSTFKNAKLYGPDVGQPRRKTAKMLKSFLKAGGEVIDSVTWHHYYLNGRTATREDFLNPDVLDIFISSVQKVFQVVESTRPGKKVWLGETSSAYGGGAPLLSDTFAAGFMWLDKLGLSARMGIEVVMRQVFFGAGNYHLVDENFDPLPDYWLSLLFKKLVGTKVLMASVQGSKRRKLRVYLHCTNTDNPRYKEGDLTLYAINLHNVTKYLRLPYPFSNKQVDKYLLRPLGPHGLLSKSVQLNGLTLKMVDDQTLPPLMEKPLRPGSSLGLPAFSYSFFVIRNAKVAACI
T1 sequence (Q9Y251 36-109 limits assumed): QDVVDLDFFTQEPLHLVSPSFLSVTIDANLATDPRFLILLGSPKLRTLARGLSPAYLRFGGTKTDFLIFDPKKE
Text: Dimerization assay—Activation assay using di-methyl-methylene-blue was effected as described in U.S. Pat. No. 6,190,875.

[2] = biological target: T2, pro-heparanase (H60) (Homo sapiens, UniProt Q9Y251, K307R); assay: Processing and activation of pro-heparanase in vitro with cathepsin B and D in the presence of heparin (Western blot, DMB assay); type: biochemical; settings: cathepsin B and/or cathepsin D
T2 sequence (Q9Y251 36-543 K307R): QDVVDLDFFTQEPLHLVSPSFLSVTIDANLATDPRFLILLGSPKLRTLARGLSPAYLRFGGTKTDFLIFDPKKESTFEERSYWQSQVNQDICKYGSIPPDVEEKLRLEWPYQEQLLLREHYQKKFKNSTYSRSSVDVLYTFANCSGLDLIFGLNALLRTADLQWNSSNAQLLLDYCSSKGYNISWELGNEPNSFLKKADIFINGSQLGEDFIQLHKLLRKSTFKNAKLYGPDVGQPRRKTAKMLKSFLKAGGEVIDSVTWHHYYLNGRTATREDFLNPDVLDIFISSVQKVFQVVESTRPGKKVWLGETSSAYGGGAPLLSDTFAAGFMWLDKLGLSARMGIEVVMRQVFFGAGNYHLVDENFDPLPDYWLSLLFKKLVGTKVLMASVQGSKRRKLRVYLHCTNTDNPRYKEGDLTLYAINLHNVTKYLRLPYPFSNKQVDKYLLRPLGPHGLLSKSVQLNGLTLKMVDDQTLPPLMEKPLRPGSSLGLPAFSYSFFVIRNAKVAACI
Description: Western blot analysis—Western blot analysis was performed using rabbit anti-heparanase polyclonal antibodies as described in U.S. Pat. Nos. 6,177,545; 6,531,129; and 6,562,950.
Following a 17 hours incubation at room temperature, reaction products were filtered to a new plate and quantified using di-methyl-methylene-blue, as described in U.S. Pat. No. 6,190,875.
Assay mixtures contained heparin (Sigma, H3393) or heparinomimetic molecules ethane-1,2-disulfonic acid (Sigma, E2269) and heparin disaccharide IVA (Sigma, H0895) for western blot analysis or heparin sepharose beads for activation assays, in 200 mM acetate buffer, pH 5.5, 4 mM EDTA and 8 mM DTT, with either Cathepsin B, Cathepsin D or both. Following a 17 hours of incubation at room temperature, reaction products were examined by western blot analysis or filtered to a new plate and quantified using di-methyl-methylene-blue, as described in U.S. Pat. No. 6,190,875 for activation assay.

[3] = biological target: T2, pro-heparanase (H60); assay: Circular dichroism spectrometry of pro-heparanase
Description: Circular Dichroism spectrometry—Circular Dichroism spectra were recorded using a JASCO 500 spetropolarimeter. Far Ultraviolet measurements (260-200 nm) were performed in a 0.1 mm demountable cuvette at 25° C., scanning at a rate of 10 nm/min. Pro-heparanase was assayed at a concentration of 0.72 mg/ml in 20 mM sodium phosphate buffer pH 6.8 supplemented with 300 mM NaCl. Effect of heparin on pro-heparanase spectra was determined at a concentration of 100 μM, and the inhibitor was added at a concentration of 15 μM. Base-line recordings were performed in the presence and absence of heparin to correct the pro-heparanase spectra.

[4] = inhibition of H53 hetero-dimer formation by H8-derived peptides, read-out: IC50 H53

| Substance | IC50 [1, 4] [µM] | also measured |
| --- | --- | --- |
| CTWHHYYLNGRTATR [Pep-25] |  | IC50 ([1]; H45-derived peptide, inhibition of H53 hetero-dimer formation, read-out: IC50 Heparanase): 21 µM |
| DPRFLILL [Compound P8-16] | 6 |  |
| FLILLGSPKLRTL [Compound P8-8] | 8 |  |
| LRTLARGLSPAYL [Compound P8-5] | 18 |  |
| PRFLILL [Compound P8-11] | 1.4 |  |
| PRFLILLGSPKLR [Compound P8-4] | 2.3 |  |
| RFLILL [Compound P8-18] | 5 |  |
| heparin [reference compound] |  | processing of pro-heparanase in vitro (Western blot) [2]: heparanase was processed by cathepsin D; conformational change in pro-heparanase [3]: significant conformational change |
